{
  "source": "patent US20230013669A1",
  "about": "“Antibacterial Treatment Using a Cannabinoid and an Active Agent” (priority 2019, published 2023)",
  "system": "Klebsiella pneumoniae ATCC 13883 (GN_003 / GN_004)",
  "assay": "Synergy of cannabidiol with cell-wall disrupting agent (CBD MIC in combination, FICI)",
  "assay_type": "cell-based",
  "description": "The compounds were stored short term at 4° C.\nAnalysis was performed using Microsoft Excel.",
  "key": {"[1]": {"conditions": "CBD with Colistin, Klebsiella pneumoniae ATCC 700603"}, "[2]": {"conditions": "CBD with MCC_6442, Klebsiella pneumoniae ATCC 700603, listed as CBD"}},
  "note": "“And” between values parts separate entries of the source, which are not always exact repeats. Equal values may be shown once.",
  "data": [
    {"smiles": "C=C(C)C1CCC(C)=CC1c1c(O)cc(CCCCC)cc1O", "note": "(stereo not drawn) [Cannabidiol, 2-[3-methyl-6-(1-methylethenyl)-2-cyclohexen-1-yl]-5-pentyl-1,3-benzenediol]", "values": [
      {"measurement": "FICI range (MIC table)", "setting": "CBD with Cefotetan, Klebsiella pneumoniae ATCC 700603, listed as CBD", "value": "1-1.5 and 0.5-1.25"},
      {"measurement": "FICI", "setting": "CBD with Ceftazidime at 4 μg/mL, Klebsiella pneumoniae ATCC 700603, listed as CBD", "value": 1},
      {"measurement": "FICI", "setting": "CBD with Ceftazidime at 8 μg/mL, Klebsiella pneumoniae ATCC 700603, listed as CBD", "value": 1},
      {"measurement": "FICI", "setting": "CBD with Ceftazidime at 16 μg/mL, Klebsiella pneumoniae ATCC 700603, listed as CBD", "value": "1.001 and 1"},
      {"measurement": "FICI", "setting": "CBD with Ceftazidime at 32 μg/mL, Klebsiella pneumoniae ATCC 700603, listed as CBD", "value": "1.002 and 1.001"},
      {"measurement": "FICI", "setting": "CBD with Ceftazidime at 64 μg/mL, Klebsiella pneumoniae ATCC 700603, listed as CBD", "value": "0.00391 and 0.001957"},
      {"measurement": "FICI", "setting": "CBD with Ceftazidime at 128 μg/mL, Klebsiella pneumoniae ATCC 700603, listed as CBD", "value": "0.007816 and 0.00391"},
      {"measurement": "FICI range (MIC table)", "setting": "CBD with Ceftazidime, Klebsiella pneumoniae ATCC 700603", "value": "0-1"},
      {"measurement": "FICI", "setting": "CBD with Cefuroxime at 1 μg/mL, Klebsiella pneumoniae ATCC 700603", "value": 1.016},
      {"measurement": "FICI", "setting": "CBD with Cefuroxime at 2 μg/mL, Klebsiella pneumoniae ATCC 700603", "value": 1.031},
      {"measurement": "FICI", "setting": "CBD with Cefuroxime at 4 μg/mL, Klebsiella pneumoniae ATCC 700603", "value": 1.0625},
      {"measurement": "FICI", "setting": "CBD with Cefuroxime at 8 μg/mL, Klebsiella pneumoniae ATCC 700603", "value": 1.125},
      {"measurement": "FICI", "setting": "CBD with Cefuroxime at 16 μg/mL, Klebsiella pneumoniae ATCC 700603", "value": 1.25},
      {"measurement": "FICI", "setting": "CBD with Cefuroxime at 32 μg/mL, Klebsiella pneumoniae ATCC 700603", "value": 0.5},
      {"measurement": "FICI", "setting": "CBD with Colistin at 0.031 μg/mL, Klebsiella pneumoniae ATCC 700603", "value": 1.03},
      {"measurement": "FICI", "setting": "CBD with Colistin at 0.062 μg/mL, Klebsiella pneumoniae ATCC 700603", "value": 1.06},
      {"measurement": "FICI", "setting": "CBD with Colistin at 0.25 μg/mL, Klebsiella pneumoniae ATCC 700603", "value": 1.25},
      {"measurement": "FICI", "setting": "CBD with Colistin at 0.5 μg/mL, Klebsiella pneumoniae ATCC 700603", "value": 0.5},
      {"measurement": "FICI", "setting": "CBD with Colistin at 1 μg/mL, Klebsiella pneumoniae ATCC 700603", "value": 1},
      {"measurement": "FICI range (MIC table)", "setting": "[1]", "value": "0.5-1.25"},
      {"measurement": "FICI range (Synergy table)", "setting": "[1]", "value": "0.5-1.25"},
      {"measurement": "FICI range (MIC table)", "setting": "[2]", "value": "0.25-1.13 and 0.13-1.06"},
      {"measurement": "FICI range (Synergy table)", "setting": "[2]", "value": "0.25-0.5 and 0.13-0.25"},
      {"measurement": "FICI", "setting": "CBD with MCC_6442 at 0.25 μg/mL, Klebsiella pneumoniae ATCC 700603", "value": 1.031},
      {"measurement": "FICI", "setting": "CBD with MCC_6442 at 0.25 μg/mL, Klebsiella pneumoniae ATCC 700603, listed as CBD", "value": 1.016},
      {"measurement": "FICI", "setting": "CBD with MCC_6442 at 0.5 μg/mL, Klebsiella pneumoniae ATCC 700603, listed as CBD", "value": "1.0625 and 1.031"},
      {"measurement": "FICI", "setting": "CBD with MCC_6442 at 1 μg/mL, Klebsiella pneumoniae ATCC 700603, listed as CBD", "value": "1.125 and 1.0625"},
      {"measurement": "FICI", "setting": "CBD with MCC_6442 at 2 μg/mL, Klebsiella pneumoniae ATCC 700603, listed as CBD", "value": "0.2539 and 0.1289"},
      {"measurement": "FICI", "setting": "CBD with MCC_6442 at 4 μg/mL, Klebsiella pneumoniae ATCC 700603, listed as CBD", "value": "0.501 and 0.251"},
      {"measurement": "FICI", "setting": "CBD with Ticarcillin at 2 μg/mL, Klebsiella pneumoniae ATCC 700603", "value": 1.002},
      {"measurement": "FICI", "setting": "CBD with Ticarcillin at 4 μg/mL, Klebsiella pneumoniae ATCC 700603", "value": 1.004},
      {"measurement": "FICI", "setting": "CBD with Ticarcillin at 16 μg/mL, Klebsiella pneumoniae ATCC 700603", "value": 1.016},
      {"measurement": "FICI", "setting": "CBD with Ticarcillin at 32 μg/mL, Klebsiella pneumoniae ATCC 700603", "value": 1.031},
      {"measurement": "FICI", "setting": "CBD with Ticarcillin at 64 μg/mL, Klebsiella pneumoniae ATCC 700603", "value": 1.0625},
      {"measurement": "FICI range (MIC table)", "setting": "CBD with Ticarcillin, Klebsiella pneumoniae ATCC 700603", "value": "1-1.06"},
      {"measurement": "CBD MIC with Cefotetan", "setting": "Cefotetan at 0.015 μg/mL, Klebsiella pneumoniae ATCC 700603", "value": ">256", "unit": "µg/mL"},
      {"measurement": "CBD MIC with Cefotetan", "setting": "Cefotetan at 0.031 μg/mL, Klebsiella pneumoniae ATCC 700603", "value": ">256", "unit": "µg/mL"},
      {"measurement": "CBD MIC with Cefotetan", "setting": "Cefotetan at 0.062 μg/mL, Klebsiella pneumoniae ATCC 700603", "value": ">256", "unit": "µg/mL"},
      {"measurement": "CBD MIC with Cefotetan", "setting": "Cefotetan at 0.25 μg/mL, Klebsiella pneumoniae ATCC 700603", "value": ">256", "unit": "µg/mL"},
      {"measurement": "CBD MIC with Cefotetan", "setting": "Cefotetan at 0.5 μg/mL, Klebsiella pneumoniae ATCC 700603", "value": 0.001, "unit": "µg/mL"},
      {"measurement": "CBD MIC with Ceftazidime", "setting": "Ceftazidime at 0.015 μg/mL as headed in Table 64, Klebsiella pneumoniae ATCC 700603", "value": ">256", "unit": "µg/mL"},
      {"measurement": "CBD MIC with Ceftazidime", "setting": "Ceftazidime at 0.031 μg/mL as headed in Table 64, Klebsiella pneumoniae ATCC 700603", "value": ">256", "unit": "µg/mL"},
      {"measurement": "CBD MIC with Ceftazidime", "setting": "Ceftazidime at 0.062 μg/mL as headed in Table 64, Klebsiella pneumoniae ATCC 700603", "value": ">256", "unit": "µg/mL"},
      {"measurement": "CBD MIC with Ceftazidime", "setting": "Ceftazidime at 0.25 μg/mL as headed in Table 64, Klebsiella pneumoniae ATCC 700603", "value": 0.001, "unit": "µg/mL"},
      {"measurement": "CBD MIC with Ceftazidime", "setting": "Ceftazidime at 0.5 μg/mL as headed in Table 64, Klebsiella pneumoniae ATCC 700603", "value": 0.001, "unit": "µg/mL"},
      {"measurement": "CBD MIC with Ceftazidime", "setting": "Ceftazidime at 4 μg/mL (Table 66), Klebsiella pneumoniae ATCC 700603", "value": ">32", "unit": "µg/mL"},
      {"measurement": "CBD MIC with Ceftazidime", "setting": "Ceftazidime at 8 μg/mL (Table 66), Klebsiella pneumoniae ATCC 700603", "value": ">32", "unit": "µg/mL"},
      {"measurement": "CBD MIC with Ceftazidime", "setting": "Ceftazidime at 16 μg/mL (Table 66), Klebsiella pneumoniae ATCC 700603", "value": ">32", "unit": "µg/mL"},
      {"measurement": "CBD MIC with Ceftazidime", "setting": "Ceftazidime at 32 μg/mL (Table 66), Klebsiella pneumoniae ATCC 700603", "value": ">32", "unit": "µg/mL"},
      {"measurement": "CBD MIC with Ceftazidime", "setting": "Ceftazidime at 64 μg/mL (Table 66), Klebsiella pneumoniae ATCC 700603", "value": 0.001, "unit": "µg/mL"},
      {"measurement": "CBD MIC with Ceftazidime", "setting": "Ceftazidime at 128 μg/mL (Table 66), Klebsiella pneumoniae ATCC 700603", "value": 0.001, "unit": "µg/mL"},
      {"measurement": "CBD MIC with Cefuroxime", "setting": "Cefuroxime at 32 μg/mL, Klebsiella pneumoniae ATCC 700603", "value": 0.001, "unit": "µg/mL"},
      {"measurement": "CBD MIC with Colistin", "setting": "Colistin at 0.5 μg/mL, Klebsiella pneumoniae ATCC 700603", "value": 0.001, "unit": "µg/mL"},
      {"measurement": "CBD MIC with Colistin", "setting": "Colistin at 1 μg/mL, Klebsiella pneumoniae ATCC 700603", "value": 0.001, "unit": "µg/mL"},
      {"measurement": "activity of cannabidiol combined with octapeptin MCC_006442", "setting": "Example 4", "value": "effective"},
      {"measurement": "activity of cannabidiol in combination with octapeptin MCC_006442", "setting": "Example 7", "value": "effective"},
      {"measurement": "activity of cannabidiol combined with cefuroxime", "setting": "Example 12", "value": "effective"}
    ]}
  ]
}
